# Several values for one entry are separate records, joined by “and”; a condition that tells them apart may be missing. Identical values can stand only once.
# Columns and labels:
# hCA XII = hCA XII (Homo sapiens, UniProt O43570); assay: CA inhibitory activity, spectrophotometric p-NPA assay; type: biochemical; conditions: for IC50: p-NPA substrate, pH 7.5, 25 °C, triplicate, read-out: IC50 (µM) ± SD hCA XII
# Procedure: (§1) The software used to calculate CA IC50 along with statistical analysis of the results is GraphPad Prism 9.00. Results were estimated by using one-way ANOVA and the Bonferroni’s multiple comparisons posthoc test was performed (P < 0.05) [46]
# Carbonic anhydrase inhibitory activity:
# (§2) The spectrophotometric assay was conducted in HEPES-Tris buffer, NaCl of pH 7.5 (20mM) at 25◦C. Each inhibitory well-consisted of 50 μL of assay buffer solution, 20 μL of hCA enzyme solution (20 ng/μL in Assay Buffer), and 50 μL of test compound in HPLC grade DMSO (maintain 10% of the final concentration). The mixture solution was
# (§3) Substrate p-nitrophenyl acetate (p-NPA) (0.7mM) was prepared in HPLC grade methanol and the reaction was started by adding 20 μL to a well in a 96-well-plate. The amount of product formed was measured for 30 min continuously at 1 min intervals at 400 nm in a 96-well-plate using xMARK microplate spectrophotometer, Bio-Rad (USA). The activity of the controlled compound was taken as 100%. All experiments were carried out in triplicates of each used concentration, and results are represented as a
# M14 = assay: NCI-60 one-dose SRB screen (Melanoma); type: cell-based; conditions: Homo sapiens, single dose 10 µM, 48 h, read-out: Growth inhibition percent (GI %)
# MDA-MB-435 = assay: NCI-60 one-dose SRB screen (Melanoma); type: cell-based; conditions: Homo sapiens, single dose 10 µM, 48 h, read-out: Growth inhibition percent (GI %)
# UACC-62 = assay: NCI-60 one-dose SRB screen (Melanoma); type: cell-based; conditions: Homo sapiens, single dose 10 µM, 48 h, read-out: Growth inhibition percent (GI %)
# SK-MEL-28 = assay: NCI-60 one-dose SRB screen (Melanoma); type: cell-based; conditions: Homo sapiens, single dose 10 µM, 48 h, read-out: Growth inhibition percent (GI %)
# UACC-257 = assay: NCI-60 one-dose SRB screen (Melanoma); type: cell-based; conditions: Homo sapiens, single dose 10 µM, 48 h, read-out: Growth inhibition percent (GI %)
# SK-MEL-5 = assay: NCI-60 one-dose SRB screen (Melanoma); type: cell-based; conditions: Homo sapiens, single dose 10 µM, 48 h, read-out: Growth inhibition percent (GI %)
# LOX IMVI = assay: NCI-60 one-dose SRB screen (Melanoma); type: cell-based; conditions: Homo sapiens, single dose 10 µM, 48 h, read-out: Growth inhibition percent (GI %)
# SK-MEL-2 = assay: NCI-60 one-dose SRB screen (Melanoma); type: cell-based; conditions: Homo sapiens, single dose 10 µM, 48 h, read-out: Growth inhibition percent (GI %)
# MALME-3M = assay: NCI-60 one-dose SRB screen (Melanoma); type: cell-based; conditions: Homo sapiens, single dose 10 µM, 48 h, read-out: Growth inhibition percent (GI %)
# MOLT-4 = assay: NCI-60 one-dose SRB screen (Leukemia); type: cell-based; conditions: Homo sapiens, single dose 10 µM, 48 h, read-out: Growth inhibition percent (GI %)
# RPMI-8226 = assay: NCI-60 one-dose SRB screen (Leukemia); type: cell-based; conditions: Homo sapiens, single dose 10 µM, 48 h, read-out: Growth inhibition percent (GI %)
# SR = assay: NCI-60 one-dose SRB screen (Leukemia); type: cell-based; conditions: Homo sapiens, single dose 10 µM, 48 h, read-out: Growth inhibition percent (GI %)
# K-562 = assay: NCI-60 one-dose SRB screen (Leukemia); type: cell-based; conditions: Homo sapiens, K562, single dose 10 µM, 48 h, read-out: Growth inhibition percent (GI %)
# CCRF-CEM = assay: NCI-60 one-dose SRB screen (Leukemia); type: cell-based; conditions: Homo sapiens, single dose 10 µM, 48 h, read-out: Growth inhibition percent (GI %)
# HL-60(TB) = assay: NCI-60 one-dose SRB screen (Leukemia); type: cell-based; conditions: Homo sapiens, single dose 10 µM, 48 h, read-out: Growth inhibition percent (GI %)
# SF-539 = assay: NCI-60 one-dose SRB screen (CNS Cancer); type: cell-based; conditions: Homo sapiens, single dose 10 µM, 48 h, read-out: Growth inhibition percent (GI %)
# SNB-19 = assay: NCI-60 one-dose SRB screen (CNS Cancer); type: cell-based; conditions: Homo sapiens, single dose 10 µM, 48 h, read-out: Growth inhibition percent (GI %)
# U251 = assay: NCI-60 one-dose SRB screen (CNS Cancer); type: cell-based; conditions: Homo sapiens, U-251, single dose 10 µM, 48 h, read-out: Growth inhibition percent (GI %)
# SF-295 = assay: NCI-60 one-dose SRB screen (CNS Cancer); type: cell-based; conditions: Homo sapiens, single dose 10 µM, 48 h, read-out: Growth inhibition percent (GI %)
# SNB-75 = assay: NCI-60 one-dose SRB screen (CNS Cancer); type: cell-based; conditions: Homo sapiens, single dose 10 µM, 48 h, read-out: Growth inhibition percent (GI %)
# SF-268 = assay: NCI-60 one-dose SRB screen (CNS Cancer); type: cell-based; conditions: Homo sapiens, single dose 10 µM, 48 h, read-out: Growth inhibition percent (GI %)
# hCA IX = hCA IX (Homo sapiens, UniProt Q16790); assay: CA inhibitory activity, spectrophotometric p-NPA assay; type: biochemical; conditions: for IC50: p-NPA substrate, pH 7.5, 25 °C, triplicate, read-out: IC50 (µM) ± SD hCA IX
# Procedure: as §1
# Carbonic anhydrase inhibitory activity:
# as §2, §3
# NCI-H522 = assay: NCI-60 one-dose SRB screen (Non-Small Cell Lung Cancer); type: cell-based; conditions: Homo sapiens, single dose 10 µM, 48 h, read-out: Growth inhibition percent (GI %)
# NCI-H23 = assay: as above; type: cell-based; conditions: Homo sapiens, single dose 10 µM, 48 h, read-out: Growth inhibition percent (GI %)
# A549/ATCC = assay: as above; type: cell-based; conditions: Homo sapiens, single dose 10 µM, 48 h, read-out: Growth inhibition percent (GI %)
# NCI-H460 = assay: as above; type: cell-based; conditions: Homo sapiens, single dose 10 µM, 48 h, read-out: Growth inhibition percent (GI %)
# EKVX = assay: as above; type: cell-based; conditions: Homo sapiens, single dose 10 µM, 48 h, read-out: Growth inhibition percent (GI %)
# NCI-H226 = assay: as above; type: cell-based; conditions: Homo sapiens, single dose 10 µM, 48 h, read-out: Growth inhibition percent (GI %)
# NCI-H322M = assay: as above; type: cell-based; conditions: Homo sapiens, single dose 10 µM, 48 h, read-out: Growth inhibition percent (GI %)
# HOP-62 = assay: as above; type: cell-based; conditions: Homo sapiens, single dose 10 µM, 48 h, read-out: Growth inhibition percent (GI %)
# COLO 205 = assay: NCI-60 one-dose SRB screen (Colon Cancer); type: cell-based; conditions: Homo sapiens, single dose 10 µM, 48 h, read-out: Growth inhibition percent (GI %)
# HCT-15 = assay: NCI-60 one-dose SRB screen (Colon Cancer); type: cell-based; conditions: Homo sapiens, single dose 10 µM, 48 h, read-out: Growth inhibition percent (GI %)
# HCC-2998 = assay: NCI-60 one-dose SRB screen (Colon Cancer); type: cell-based; conditions: Homo sapiens, single dose 10 µM, 48 h, read-out: Growth inhibition percent (GI %)
# KM12 = assay: NCI-60 one-dose SRB screen (Colon Cancer); type: cell-based; conditions: Homo sapiens, single dose 10 µM, 48 h, read-out: Growth inhibition percent (GI %)
# HT29 = assay: NCI-60 one-dose SRB screen (Colon Cancer); type: cell-based; conditions: Homo sapiens, HT-29, single dose 10 µM, 48 h, read-out: Growth inhibition percent (GI %)
# HCT-116 = assay: NCI-60 one-dose SRB screen (Colon Cancer); type: cell-based; conditions: Homo sapiens, single dose 10 µM, 48 h, read-out: Growth inhibition percent (GI %)
# SW-620 = assay: NCI-60 one-dose SRB screen (Colon Cancer); type: cell-based; conditions: Homo sapiens, single dose 10 µM, 48 h, read-out: Growth inhibition percent (GI %)
# IGROV1 = assay: NCI-60 one-dose SRB screen (Ovarian cancer); type: cell-based; conditions: Homo sapiens, IGROV-1, single dose 10 µM, 48 h, read-out: Growth inhibition percent (GI %)
# OVCAR-3 = assay: NCI-60 one-dose SRB screen (Ovarian cancer); type: cell-based; conditions: Homo sapiens, single dose 10 µM, 48 h, read-out: Growth inhibition percent (GI %)
# OVCAR-5 = assay: NCI-60 one-dose SRB screen (Ovarian cancer); type: cell-based; conditions: Homo sapiens, single dose 10 µM, 48 h, read-out: Growth inhibition percent (GI %)
# NCI/ADR-RES = assay: NCI-60 one-dose SRB screen (Ovarian cancer); type: cell-based; conditions: Homo sapiens, single dose 10 µM, 48 h, read-out: Growth inhibition percent (GI %)
# OVCAR-4 = assay: NCI-60 one-dose SRB screen (Ovarian cancer); type: cell-based; conditions: Homo sapiens, single dose 10 µM, 48 h, read-out: Growth inhibition percent (GI %)
# OVCAR-8 = assay: NCI-60 one-dose SRB screen (Ovarian cancer); type: cell-based; conditions: Homo sapiens, single dose 10 µM, 48 h, read-out: Growth inhibition percent (GI %)
# SK-OV-3 = assay: NCI-60 one-dose SRB screen (Ovarian cancer); type: cell-based; conditions: Homo sapiens, single dose 10 µM, 48 h, read-out: Growth inhibition percent (GI %)
# hCA XII, sequence (O43570 25-354): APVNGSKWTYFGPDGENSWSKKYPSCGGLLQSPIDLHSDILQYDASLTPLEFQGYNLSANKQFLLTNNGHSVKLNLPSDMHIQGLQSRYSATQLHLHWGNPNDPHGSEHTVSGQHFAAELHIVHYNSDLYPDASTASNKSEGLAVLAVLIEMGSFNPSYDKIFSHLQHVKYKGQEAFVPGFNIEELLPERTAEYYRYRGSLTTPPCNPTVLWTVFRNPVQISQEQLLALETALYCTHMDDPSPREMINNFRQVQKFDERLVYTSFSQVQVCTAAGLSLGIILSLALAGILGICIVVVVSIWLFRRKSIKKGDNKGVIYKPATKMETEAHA
structure (smiles),measurement,setting,value
"NC(=S)NNC(=O)c1cn(-c2ccc(S(N)(=O)=O)cc2)nc1-c1ccccc1 [Compound 9a, 2-[3-Phenyl-1-(4-sulfamoylphenyl)-1H-pyrazole-4-carbonyl] hydrazine-1-carbothioamide]",IC50,hCA XII,0.605 ± 0.023 µM
same,melting point,,180 to 181 °C
same,inhibition at 10 µM,M14,< 5%
same,inhibition at 10 µM,MDA-MB-435,< 5%
same,inhibition at 10 µM,UACC-62,8.26%
same,inhibition at 10 µM,SK-MEL-28,< 5%
same,inhibition at 10 µM,UACC-257,< 5%
same,inhibition at 10 µM,SK-MEL-5,< 5%
same,inhibition at 10 µM,LOX IMVI,< 5%
same,inhibition at 10 µM,SK-MEL-2,< 5%
same,inhibition at 10 µM,MALME-3M,< 5%
same,inhibition at 10 µM,MOLT-4,< 5%
same,inhibition at 10 µM,RPMI-8226,< 5%
same,inhibition at 10 µM,SR,< 5%
same,inhibition at 10 µM,K-562,< 5%
same,inhibition at 10 µM,CCRF-CEM,< 5%
same,inhibition at 10 µM,HL-60(TB),< 5%
same,inhibition at 10 µM,SF-539,6.07%
same,inhibition at 10 µM,SNB-19,< 5%
same,inhibition at 10 µM,U251,< 5%
same,inhibition at 10 µM,SF-295,< 5%
same,inhibition at 10 µM,SNB-75,< 5%
same,inhibition at 10 µM,SF-268,< 5%
same,IC50,hCA IX,0.21 µM and 0.215 µM
same,inhibition at 10 µM,NCI-H522,23.9%
same,inhibition at 10 µM,NCI-H23,< 5%
same,inhibition at 10 µM,A549/ATCC,10.9%
same,inhibition at 10 µM,NCI-H460,< 5%
same,inhibition at 10 µM,EKVX,< 5%
same,inhibition at 10 µM,NCI-H226,< 5%
same,inhibition at 10 µM,NCI-H322M,< 5%
same,inhibition at 10 µM,HOP-62,8.3%
same,inhibition at 10 µM,COLO 205,< 5%
same,inhibition at 10 µM,HCT-15,< 5%
same,inhibition at 10 µM,HCC-2998,< 5%
same,inhibition at 10 µM,KM12,< 5%
same,inhibition at 10 µM,HT29,10.8%
same,inhibition at 10 µM,HCT-116,< 5%
same,inhibition at 10 µM,SW-620,< 5%
same,inhibition at 10 µM,IGROV1,< 5%
same,inhibition at 10 µM,OVCAR-3,< 5%
same,inhibition at 10 µM,OVCAR-5,< 5%
same,inhibition at 10 µM,NCI/ADR-RES,< 5%
same,inhibition at 10 µM,OVCAR-4,< 5%
same,inhibition at 10 µM,OVCAR-8,< 5%
same,inhibition at 10 µM,SK-OV-3,< 5%
"CS(=O)(=O)c1ccc(-c2nn(-c3ccc(S(N)(=O)=O)cc3)cc2C(=O)OCC(=O)Nc2ccc(S(N)(=O)=O)cc2)cc1 [Compound 4e, 2-Oxo-2-[(4-sulfamoylphenyl)amino] ethyl 3-(4-(methylsulfonyl)phenyl)-1-(4-sulfamoylphenyl)-1H-pyrazole-4-carboxylate]",Ki,hCA XII,81 nM
same,IC50,hCA XII,0.08 µM and 0.081 µM
same,melting point,,132 to 135 °C
same,inhibition at 10 µM,M14,< 5%
same,inhibition at 10 µM,MDA-MB-435,< 5%
same,inhibition at 10 µM,UACC-62,< 5%
same,inhibition at 10 µM,SK-MEL-28,< 5%
same,inhibition at 10 µM,UACC-257,6.07%
same,inhibition at 10 µM,SK-MEL-5,< 5%
same,inhibition at 10 µM,LOX IMVI,< 5%
same,inhibition at 10 µM,SK-MEL-2,< 5%
same,inhibition at 10 µM,MALME-3M,< 5%
same,inhibition at 10 µM,MOLT-4,< 5%
same,inhibition at 10 µM,RPMI-8226,< 5%
same,inhibition at 10 µM,SR,< 5%
same,inhibition at 10 µM,K-562,< 5%
same,inhibition at 10 µM,CCRF-CEM,< 5%
same,inhibition at 10 µM,HL-60(TB),< 5%
same,inhibition at 10 µM,SF-539,< 5%
same,inhibition at 10 µM,SNB-19,< 5%
same,inhibition at 10 µM,U251,< 5%
same,inhibition at 10 µM,SF-295,< 5%
same,inhibition at 10 µM,SNB-75,< 5%
same,inhibition at 10 µM,SF-268,< 5%
same,Ki,hCA IX,72 nM
same,IC50,hCA IX,0.07 µM and 0.072 µM
same,inhibition at 10 µM,NCI-H522,23.1%
same,inhibition at 10 µM,NCI-H23,< 5%
same,inhibition at 10 µM,A549/ATCC,6.92%
same,inhibition at 10 µM,NCI-H460,< 5%
same,inhibition at 10 µM,EKVX,< 5%
same,inhibition at 10 µM,NCI-H226,< 5%
same,inhibition at 10 µM,NCI-H322M,< 5%
same,inhibition at 10 µM,HOP-62,< 5%
same,inhibition at 10 µM,COLO 205,< 5%
same,inhibition at 10 µM,HCT-15,< 5%
same,inhibition at 10 µM,HCC-2998,< 5%
same,inhibition at 10 µM,KM12,< 5%
same,inhibition at 10 µM,HT29,6.67%
same,inhibition at 10 µM,HCT-116,< 5%
same,inhibition at 10 µM,SW-620,< 5%
same,inhibition at 10 µM,IGROV1,< 5%
same,inhibition at 10 µM,OVCAR-3,< 5%
same,inhibition at 10 µM,OVCAR-5,< 5%
same,inhibition at 10 µM,NCI/ADR-RES,< 5%
same,inhibition at 10 µM,OVCAR-4,< 5%
same,inhibition at 10 µM,OVCAR-8,< 5%
same,inhibition at 10 µM,SK-OV-3,< 5%

# Reference: publication PMC12454493, “Insight on novel sulfamoylphenyl pyrazole derivatives as anticancer carbonic anhydrase inhibitors” (Molecular Diversity, 2024)
